Measurements: patent US10350168B2, “Dermal delivery compositions comprising active agent-calcium phosphate particle complexes and methods of using the same” (Laboratory Skin Care, Inc., priority 2009, dated 2019)
“And” between values parts separate entries of the source, which are not always exact repeats. Identical values can stand only once.

What was measured:
[1] = Optimum pH for producing active agent-calcium phosphate complexes; format: physicochemical
Description: In the following tables, the specific solvent systems are examples of solvent systems that may be used.

[2] = Influence of solvent on binding of Adapalene to calcium phosphate particles (UV 319 nm); format: physicochemical
Description: (§1) • Calcium phosphate particles • Adapalene, Sekhsaria Chemicals Limited, India • DMSO, Fisher Scientific, Product No. D159-4 • Ethanol, Fisher Scientific, Product No. AC61511-0010 Methods: • i. […] The suspensions were mixed for 30 min, and centrifuged at 2000×g for 10 min in a bench top centrifuge. • iv. The absorbance of supernatants were measured at 319 nm (the detection wavelength for Adapalene) by UV spectrophotometer. • v. […]

[3] = Adapalene saturated solutions in ethanol and DMSO; format: physicochemical
Description: as §1

[4] = Stability (activity) of ascorbic acid at 50° C. with and without calcium phosphate particles; format: physicochemical; conditions: for activity of ascorbic acid, 2 um: bound to 2 μm calcium phosphate particles; for activity of ascorbic acid, Control: without calcium phosphate particles
Description: 11.9 mg of ascorbic acid was dissolved in 30 ml of water. 2 g of 2 μm calcium phosphate particles were suspended in 19.5 ml of water and the pH was adjusted to pH 7.14 with HCl. 0.5 ml of ascorbic acid solution (0.40 mg/ml) was mixed in the suspension of calcium phosphate particles, which reduced the pH to 7.05. The suspension (pH 7.05) of calcium phosphate particles including 10 μg/ml of ascorbic acid was incubated at 50° C. for 0.5 to 5 hours. The heat-denaturation of ascorbic acid was terminated by cooling the suspension in an ice bath for 15 minutes. In order to release bound ascorbic acid from calcium phosphate particles to measure the stabilization effect, the pH of each suspension was adjusted to pH 5 with HCl and centrifuged at 3,000 rpm for 10 minutes. The supernatant obtained was measured at 265 nm. As a control, a 10 μg/ml of ascorbic acid solution was also incubated and measured by the same procedures without calcium phosphate particles. The activity of ascorbic acid was calculated by the following formula: The activity of ascorbic acid (%)=(A265nm of the supernatant after incubation/A265nm of the ascorbic acid before incubation)×100 The same procedures were repeated with 10 μm calcium phosphate particles. b. Results

[5] = Tape-stripping analysis of topical application of active-calcium phosphate complexes; format: in vivo; conditions: human forearm, ten tape strips
Description: The purpose of this study was to detect the distribution of actives in the stratum corneum following topical application of the active-calcium phosphate particles • Method: The distribution of STAY C50 within the stratum corneum was assessed by serial tape stripping of the skin to which a STAY C50-calcium phosphate particle formulation was applied. An application site on the forearm of a human subject was marked and 200 μl of the formulation spread by spatula. The site was allowed to dry for 10 minutes and then followed by ten pre-weighed tape stripping using strips of (3 in^2) applied to the application site. STAY C50 was extracted from the tape strips by sonicating the samples in water for 30 minutes and analyzing the samples by HPLC. […] An application site on the forearm of a human subject was marked and 200 μl of the formulation spread by spatula. The site was allowed to dry for 10 minutes and then followed by ten pre-weighed tape stripping using strips of (3 in^2) applied to the application site. Lysozyme was extracted from the tape strips by sonicating the samples in water for 30 minutes and analyzing the samples by HPLC. Lysozyme was detected to a depth of 6 tape strips (FIG. 10). 5. Controlled Slow Release of Active Agents by Franz Cell • Purpose: The purpose of this study was to detect riboflavin from riboflavin attached to calcium phosphate particles. […]

[6] = Influence of pH on binding of Salicylic acid to calcium phosphate particles (UV 297 nm); format: physicochemical
Description: • Calcium phosphate particles • Salicylic acid, Fisher Scientific, Part No. A277-500 Methods: • i. 23.2 mg of Salicylic acid was dissolved in 1 ml of ethanol. • ii. 4 g of calcium phosphate particles were suspended in 39.8 ml of water and the pH was adjusted close to the targeted pH with HCl. • iii. 0.2 ml of Salicylic acid solution (23.2 mg/ml) was mixed in the suspension of calcium phosphate particles. • iv. The pH was adjusted to each of the target pH values (11.36, 8.34, 7.47, 7.07, 5.99) with HCl. • v. At each pH, a 4.8 ml sample was taken from the suspension. All the samples were centrifuged separately at 2000×g for 10 min. • vi. The absorbance of supernatant was measured at 297 nm (the detection wavelength for Salicylic acid) by UV spectrophotometer. • vii. […]

[7] = Sodium Tocopheryl Phosphate binding to and release from calcium phosphate particles (UV 286 nm); format: physicochemical
Description: • Calcium phosphate particles • Sodium Tocopheryl Phosphate (TPNa), Showa Denko KK • Ethanol, Fisher Scientific, Product No. AC615090020 Methods: • i. 20 mg of TPNa was dissolved in 40 ml of water by gently mixing (0.5 mg/ml). • ii. 3 g of calcium phosphate particles was mixed with 30 ml of TPNa solution at 0.5 mg/ml, and mixed for 30 min. • iii. The binding suspension was centrifuged at 2000×g for 10 min. The supernatant was transferred to new tube, and centrifuge again at 2000×g for 10 min to clarify. The final supernatant was analyzed with an UV spectrophotometer at 286 nm to quantitate free TPNa and calculate the binding. Approximately 100% of TPNa in the binding suspension was attached to calcium phosphate particles. • iv. The pellet of TPNa calcium phosphate complex was re-suspended in 60% ethanol to release the bound TPNa. • v. The release suspension in 60% ethanol was centrifuged at 2000×g for 10 min. The supernatant was analyzed with an UV spectrophotometer at 286 nm to quantitate free TPNa released.

[8] = Argireline binding to calcium phosphate particles with or without sodium lauryl sulfate pretreatment; format: physicochemical
Description: • Argireline to calcium phosphate particles was pretreated with sodium lauryl sulfate Materials: • Calcium phosphate particles • Argireline, (Acetyl Hexapeptide-8), Lipotec S.A. • Sodium lauryl sulfate (SLS), Colonial Chemical, Inc. Methods: • i. Argireline was dissolved in water as a 10 mg/ml solution. • ii. Calcium phosphate particles were mixed with 10 ml of 0.1% SLS for 5 min. […] The pellet was re-suspended in 20 ml water, centrifuged at 2000×g for 10 min, and the washing supernatant was discarded. The washing step was repeated twice. The water contained in the pellet was determined. The final pellet was used in the binding study. • iii. Calcium phosphate particles (SLS treated or no SLS treatment) were mixed with water. HCl (or NaOH) was added to adjust the pH of Calcium phosphate particles suspension to targeted pH including neutral and pH˜10. • iv. Argireline stock at 10 mg/ml was added to each binding suspensions to be a final concentration of 0.5 mg/ml. After the suspension was mixed for 30 min, the final pH was measured. • v. The binding suspensions were centrifuged at 2000×g for 10 min in the bench top centrifuge. The supernatants were analyzed with Refractive Index detector connected to the Shimadzu HPLC 20A system to quantify the free Argireline in the solution. A size-exclusion HPLC method was developed to quantify Argireline in the supernatants of the binding mixtures. […] The mobile phase was 100% water, and eluted at a rate of 1 ml/min. The eluent was monitored at 205 nm or by a refractive index detector (Shimadzu, Model No. RID-10A). Argireline was observed as a major peak in the chromatogram with retention time of about 14 min. The quantification of Argireline was achieved by external standard calibration. • vi. The Argireline bound was then calculated by subtracting the amount of Argireline detected in the supernatant from the total initial amount in the binding suspension.

[9] = pH dependent release of lysozyme from lysozyme calcium phosphate complexes; format: physicochemical; conditions: flow 1 mL/hr, 8 hours
Description: In the stratum corneum, the pH ranges from approximately 4.3 to 5.0 with pH […] with stratum corneum depth. To study calcium phosphate particle release active agent at conditions analogous to skin, two lysozyme calcium phosphate complexes were exposed to buffers of ph 4.8 (0.5 M sodium acetate) and 7.0 (10 mM Bis Tris) for 8 hours. The buffers flowed through the samples at a rate of 1 mL/hr and were collected hourly and analyzed for lysozyme release by monitoring the peak at 280 nm by UV spectrometer. An equivalent mass of lysozyme Calcium phosphate particles complex was vortexed in pH 4.8 buffer to estimate the total available lysozyme in the sample.

[10] = Lysozyme binding to calcium phosphate particles (UV 280 nm); format: physicochemical; conditions: pH 6.83
Description: • Calcium phosphate particles • Lysozyme, MP biomedicals LLC. Product No. ICN10083405 • Phosphoric acid, Fisher Scientific, Product No. A260500 Methods: • i. 364.7 mg of Lysozyme as dissolved in 18.01 ml of water (20.25 mg/ml). • ii. 0.8 g of calcium phosphate particles were mixed with 4 ml of water, and the pH of the suspension was adjusted to neutral with diluted phosphoric acid. • iii. 4 ml of Lysozyme solution (20.25 mg/ml) was added to the suspension of calcium phosphate particles to achieve a final concentration of 10.124 mg/ml, and a final volume of 8 ml. The final pH was measured. • iv. The suspension was mixed for 30 min, and centrifuged at 2000×g for 10 min in a bench top centrifuge. • v. The absorbance of supernatant was measured at 280 nm (the detection wavelength for Lysozyme) by UV spectrophotometer. • vi. […]

[11] = Franz cell transdermal delivery through pig skin; format: in vitro ADME; conditions: for penetration through skin (riboflavin metabolite in receptor fluid): 8 and 16 hours
Description: Controlled Slow Release of Active Agents by Franz Cell • Purpose: The purpose of this study was to detect riboflavin from riboflavin attached to calcium phosphate particles. Methods: • Circular 6 cm^2 discs of full-thickness pig skin were cut from a larger abdominal specimen. Fat was removed from the dermis-side by scissors and the skin was stored at −20° C. until use. The skin was affixed between the two compartments of the glass diffusion cell (Laboratory Glass Apparatus, Model #LG-1084-LPCT). This allowed an exposed skin area of 5 cm^2 over a receptor compartment volume of 4.5 ml. The diffusion cell was maintained at 37° C.
Penetration Conditions • Topical application intervals were 8 and 16 hrs. The cells were covered with parafilm and shielded from light by aluminum wrap. A receptor fluid of phosphate buffered saline (PBS) was spun at 60 rpm.
Applied Formulations • Riboflavin monophosphate-calcium phosphate particles were prepared to deliver 0.35-1.15 mg riboflavin (20-38% suspensions). • Riboflavin monophosphate in PBS was prepared at 1.5 mg/mL to deliver 0.3-0.45 mg riboflavin. • Formulations were applied by pipette in volumes of 50-100 μl. Riboflavin-calcium phosphate complex applications were allowed to air dry and then equal volume of 0.5 M sodium acetate buffer was pipetted onto the application site. […]
Sample Collection • The skin surface, while still retained in the diffusion cell, was washed twice with 1 mL PBS each time. The skin was removed from diffusion cell and dried and analyzed.
Sample Analysis • Washes and Receptor fluid: The approximate volume of the fluids was determined. […] The supernatant was then removed and analyzed by UV spectrometer. If the UV absorbance was saturated (over >2.0), the samples were diluted with water. The UV absorbance value at 370 nm was recorded. • Skin: The skin was minced and mixed with 5 ml of 10% trichloracetic acid solution. […] If the UV absorbance was saturated (over >2.0), samples were diluted with water. The maximum UV absorbance value at 370 nm was recorded.

Cc1c(C)c2c(c(C)c1OP(=O)([O-])OC1=C(O)[C@@H]([C@@H](O)CO)OC1=O)CC[C@@](C)(CCC[C@H](C)CCC[C@H](C)CCCC(C)C)O2.[K+] (racemic) [Sepivital, dl-a-tocopheryl 2 L ascorbyl phosphate]
Optimum pH ([1]; Loading Solvent Water): 7

COc1ccc(-c2ccc3cc(C(=O)O)ccc3c2)cc1C12CC3CC(CC(C3)C1)C2 [Adapalene]
Binding capacity of Adapalene to calcium phosphate particles ([2]; in DMSO): 12.55 mg/g
Binding capacity of Adapalene to calcium phosphate particles ([2]; in ethanol): 0.78 mg/g
saturated solution concentration ([3]; in DMSO): 20.65 mg/mL
saturated solution concentration ([3]; in ethanol): 0.087 mg/mL
Optimum pH ([1]; Loading Solvent DMSO): 7
Optimum pH ([1]; Loading Solvent Ethanol): 11 and 7

O=C1O[C@H]([C@@H](O)CO)C(O)=C1O [Ascorbic acid]
Optimum pH ([1]; Loading Solvent Water): >8.12
activity of ascorbic acid, 2 um ([4]; 0 hrs): 100%
activity of ascorbic acid, 2 um ([4]; 0.5 hrs): 85%
activity of ascorbic acid, 2 um ([4]; 2 hrs): 59%
activity of ascorbic acid, 2 um ([4]; 3 hrs): 48%
activity of ascorbic acid, 2 um ([4]; 5 hrs): 35%
activity of ascorbic acid, Control ([4]; 0 hrs): 100%
activity of ascorbic acid, Control ([4]; 0.5 hrs): 36%
activity of ascorbic acid, Control ([4]; 2 hrs): 18%
activity of ascorbic acid, Control ([4]; 5 hrs): 0%

Oc1ccc(C=Cc2cc(O)cc(O)c2)cc1 [Resveratrol]
Optimum pH ([1]; Loading Solvent Ethanol/water): 10

O=C1O[C@H]([C@@H](O)CO)C([O-])=C1OP(=O)([O-])[O-].[Na+].[Na+].[Na+] [STAY-C50, Sodium Ascorbyl Phosphate]
delivery depth in stratum corneum ([5]; STAY C50-calcium phosphate particle formulation): 10th layer of stratum corneum

O=C(O)c1ccccc1O [Salicylic acid]
Salicylic acid Bound ([6]; pH 5.99): 0 µg/g
Salicylic acid Bound ([6]; pH 7.07): 23.8 µg/g
Salicylic acid Bound ([6]; pH 7.47): 97.5 µg/g
Salicylic acid Bound ([6]; pH 8.34): 660.4 µg/g
Salicylic acid Bound ([6]; pH 11.36): 1141.14 µg/g
Optimum pH ([1]; Loading Solvent Ethanol/water): 4.03-7.90

Cc1c(C)c2c(c(C)c1OP(=O)([O-])[O-])CCC(C)(CCCC(C)CCCC(C)CCCC(C)C)O2.[Na+].[Na+] (stereo not shown) [TPNa, Sodium Tocopheryl Phosphate]
TPNa in the binding suspension attached to calcium phosphate particles ([7]; 0.5 mg/ml TPNa in water): Approximately 100%
integrity of released TPNa (UV spectroscopy) ([7]; released in 60% ethanol): identical to an unbound control

Acetyl Hexapeptide-8 [Argireline]
Optimum pH ([1]; Loading Solvent Water): 6.7-7.8 and 7.8 and 6.4
Argireline bound ([8]; No pretreatment, pH 7.39): 0.09 mg/g
Argireline bound ([8]; No pretreatment, pH 10.46): 0.05 mg/g
Argireline bound ([8]; SLS treated particles, pH 7.85): 1.19 mg/g
Argireline bound ([8]; SLS treated particles, pH 10.10): 2.15 mg/g

Hyaluronic acid Sodium salt
Optimum pH ([1]; Loading Solvent Water): 7

Lysozyme: Lysozyme, MP biomedicals LLC
lysozyme release from calcium phosphate particles ([9]; pH 4.8 (0.5 M sodium acetate)): most of the lysozyme releasing within the first hour
lysozyme release from calcium phosphate particles ([9]; pH 7.0 (10 mM Bis Tris)): no lysozyme is observed released
Lysozyme bound to calcium phosphate particles [10]: 6.8 mg/g
depth of detection ([5]; lysozyme-calcium phosphate particle formulation): 6 tape strips

Riboflavin monophosphate
release rate of the active versus aqueous solution ([11]; calcium phosphate particle complex): slower release of the active
penetration through skin (riboflavin metabolite in receptor fluid) ([11]; from aqueous solution (PBS)): penetrated through skin
penetration through skin (riboflavin metabolite in receptor fluid) ([11]; from calcium phosphate particle complex): penetrated through skin
